# According to ChEMBL document CHEMBL1122193, “Design of potent and selective antagonists of the vasopressor responses to arginine-vasopressin” (J Med Chem, 1982):
# Residues, ends and D or L forms follow the SMILES beside them.
# Assays:
# Rattus norvegicus [1] = assay: Compound evaluated in vivo and negative logarithm of effective dose divided by estimated volume of distribution (67 mL/kg) determined; type: ADME, organism-based; conditions: read-out: pA2 (converted)
# Rattus norvegicus [2] = species on record: Rattus norvegicus; assay: In vitro anti-oxytocic potency was recorded in absence of Mg2+ in rat uteri; type: functional; conditions: read-out: pA2 (converted)
# Rattus norvegicus [3] = species on record: Rattus norvegicus; assay: In vitro anti-oxytocic potency was recorded in presence of 0.5 mM Mg2+ in rat uteri; type: functional; conditions: read-out: pA2 (converted)
# Rattus norvegicus [4] = species on record: Rattus norvegicus; assay: Effective dose for anti-vasopressor potency to reduce the response to 2x units of agonist to equal the response to 1x units; type: functional
# Rattus norvegicus [5] = assay: Antidiuretic activity in intravenous antidiuretic assay in rats under ethanol anesthesia; type: functional, Urine
SMILES,Kb (Rattus norvegicus [1]) [nM],Kb (Rattus norvegicus [2]) [nM],Kb (Rattus norvegicus [3]) [nM],Effective dose (Rattus norvegicus [4]) [nM/kg],Antidiuretic activity (Rattus norvegicus [5]) [U/mg]
CCC1(CC)CC(=O)N[C@@H](Cc2ccc(O)cc2)C(=O)N[C@H](Cc2ccccc2)C(=O)N[C@@H](CCC(N)=O)C(=O)N[C@H](CC(N)=O)C(=O)N[C@@H](C(=O)N2CCC[C@H]2C(=O)N[C@H](CCCN=C(N)N)C(=O)NCC(N)=O)CSS1,11,112,200,0.81,0.06
CC1(C)CC(=O)N[C@@H](Cc2ccc(O)cc2)C(=O)N[C@@H](Cc2ccccc2)C(=O)N[C@@H](CCC(N)=O)C(=O)N[C@@H](CC(N)=O)C(=O)N[C@H](C(=O)N2CCC[C@H]2C(=O)N[C@@H](CCCN=C(N)N)C(=O)NCC(N)=O)CSS1 [listing 1 of 2 here],,,,3.2,
CC(C)[C@@H]1NC(=O)[C@H](Cc2ccccc2)NC(=O)[C@H](Cc2ccc(O)cc2)NC(=O)CC(C)(C)SSC[C@@H](C(=O)N2CCC[C@H]2C(=O)N[C@H](CCCN=C(N)N)C(=O)NCC(N)=O)NC(=O)[C@H](CC(N)=O)NC1=O [listing 1 of 2 here],,,75.9,,
"CC(C)[C@@H]1NC(=O)[C@H](Cc2ccccc2)NC(=O)[C@H](Cc2ccc(O)cc2)NC(=O)CC2(CCCCC2)SSC[C@@H](C(=O)N2CCC[C@H]2C(=O)N[C@H](CCCN=C(N)N)C(=O)NCC(N)=O)NC(=O)[C@H](CC(N)=O)NC1=O (HELM PEPTIDE1{Y.F.V.N.C.P.[dR].G.[am]}|CHEM1{[O=C(CC1(S[*:2])CCCCC1)[*:1]]}$PEPTIDE1,CHEM1,1:R1-1:R1|PEPTIDE1,CHEM1,5:R3-1:R2$$$V2.0) [listing 1 of 2 here]",,,,1.5,
CC1(C)CC(=O)N[C@@H](Cc2ccc(O)cc2)C(=O)N[C@H](Cc2ccccc2)C(=O)N[C@@H](CCC(N)=O)C(=O)N[C@H](CC(N)=O)C(=O)N[C@@H](C(=O)N2CCC[C@H]2C(=O)N[C@H](CCCN=C(N)N)C(=O)NCC(N)=O)CSS1,35.5,13.5,195,2.5,5.8
CC1(C)CC(=O)N[C@@H](Cc2ccc(O)cc2)C(=O)N[C@@H](Cc2ccccc2)C(=O)N[C@@H](CCC(N)=O)C(=O)N[C@@H](CC(N)=O)C(=O)N[C@H](C(=O)N2CCC[C@H]2C(=O)N[C@@H](CCCN=C(N)N)C(=O)NCC(N)=O)CSS1 [listing 2 of 2 here],,,1170,,
CCC1(CC)CC(=O)N[C@@H](Cc2ccc(O)cc2)C(=O)N[C@H](Cc2ccccc2)C(=O)N[C@@H](C(C)C)C(=O)N[C@H](CC(N)=O)C(=O)N[C@@H](C(=O)N2CCC[C@H]2C(=O)N[C@@H](CCCN=C(N)N)C(=O)NCC(N)=O)CSS1,5.13,47.9,21.9,0.38,1.5
CCC1(CC)CC(=O)N[C@@H](Cc2ccc(O)cc2)C(=O)N[C@@H](Cc2ccccc2)C(=O)N[C@@H](CCC(N)=O)C(=O)N[C@@H](CC(N)=O)C(=O)N[C@H](C(=O)N2CCC[C@H]2C(=O)N[C@@H](CCCN=C(N)N)C(=O)NCC(N)=O)CSS1 [listing 1 of 2 here],4.37,50.1,69.2,,
"CC(C)[C@@H]1NC(=O)[C@H](Cc2ccccc2)NC(=O)[C@H](Cc2ccc(O)cc2)NC(=O)CC2(CCCCC2)SSC[C@@H](C(=O)N2CCC[C@H]2C(=O)N[C@H](CCCN=C(N)N)C(=O)NCC(N)=O)NC(=O)[C@H](CC(N)=O)NC1=O (HELM PEPTIDE1{Y.F.V.N.C.P.[dR].G.[am]}|CHEM1{[O=C(CC1(S[*:2])CCCCC1)[*:1]]}$PEPTIDE1,CHEM1,1:R1-1:R1|PEPTIDE1,CHEM1,5:R3-1:R2$$$V2.0) [listing 2 of 2 here]",,234,589,,
"CC(C)[C@@H]1NC(=O)[C@H](Cc2ccccc2)NC(=O)[C@H](Cc2ccc(O)cc2)NC(=O)CC2(CCCCC2)SSC[C@@H](C(=O)N2CCC[C@H]2C(=O)N[C@@H](CCCN=C(N)N)C(=O)NCC(N)=O)NC(=O)[C@H](CC(N)=O)NC1=O (HELM PEPTIDE1{Y.F.V.N.C.P.R.G.[am]}|CHEM1{[O=C(CC1(S[*:2])CCCCC1)[*:1]]}$PEPTIDE1,CHEM1,1:R1-1:R1|PEPTIDE1,CHEM1,5:R3-1:R2$$$V2.0)",,,,0.76,0.32
CC(C)[C@@H]1NC(=O)[C@@H](Cc2ccccc2)NC(=O)[C@H](Cc2ccc(O)cc2)NC(=O)CC(C)(C)SSC[C@H](C(=O)N2CCC[C@H]2C(=O)N[C@@H](CCCN=C(N)N)C(=O)NCC(N)=O)NC(=O)[C@@H](CC(N)=O)NC1=O,12,8.13,19.1,0.84,312
NC(=O)CC[C@@H]1NC(=O)[C@H](Cc2ccccc2)NC(=O)[C@H](Cc2ccc(O)cc2)NC(=O)CC2(CCCCC2)SSC[C@@H](C(=O)N2CCC[C@H]2C(=O)N[C@@H](CCCN=C(N)N)C(=O)NCC(N)=O)NC(=O)[C@H](CC(N)=O)NC1=O [listing 1 of 2 here],,47.9,53.7,,
NC(=O)CC[C@@H]1NC(=O)[C@H](Cc2ccccc2)NC(=O)[C@H](Cc2ccc(O)cc2)NC(=O)CC2(CCCCC2)SSC[C@@H](C(=O)N2CCC[C@H]2C(=O)N[C@H](CCCN=C(N)N)C(=O)NCC(N)=O)NC(=O)[C@H](CC(N)=O)NC1=O [listing 1 of 2 here],3.02,107,257,,
CCC1(CC)CC(=O)N[C@@H](Cc2ccc(O)cc2)C(=O)N[C@@H](Cc2ccccc2)C(=O)N[C@@H](CCC(N)=O)C(=O)N[C@@H](CC(N)=O)C(=O)N[C@H](C(=O)N2CCC[C@H]2C(=O)N[C@@H](CCCN=C(N)N)C(=O)NCC(N)=O)CSS1 [listing 2 of 2 here],,,,0.32,0.38
NC(=O)CC[C@@H]1NC(=O)[C@H](Cc2ccccc2)NC(=O)[C@H](Cc2ccc(O)cc2)NC(=O)CC2(CCCCC2)SSC[C@@H](C(=O)N2CCC[C@H]2C(=O)N[C@@H](CCCN=C(N)N)C(=O)NCC(N)=O)NC(=O)[C@H](CC(N)=O)NC1=O [listing 2 of 2 here],,,,0.34,
CCC1(CC)CC(=O)N[C@@H](Cc2ccc(O)cc2)C(=O)N[C@H](Cc2ccccc2)C(=O)N[C@@H](C(C)C)C(=O)N[C@H](CC(N)=O)C(=O)N[C@@H](C(=O)N2CCC[C@H]2C(=O)N[C@H](CCCN=C(N)N)C(=O)NCC(N)=O)CSS1,6.61,51.3,61.7,0.35,0.71
CC(C)[C@@H]1NC(=O)[C@H](Cc2ccccc2)NC(=O)[C@H](Cc2ccc(O)cc2)NC(=O)CC(C)(C)SSC[C@@H](C(=O)N2CCC[C@H]2C(=O)N[C@H](CCCN=C(N)N)C(=O)NCC(N)=O)NC(=O)[C@H](CC(N)=O)NC1=O [listing 2 of 2 here],,,,1.1,123
NC(=O)CC[C@@H]1NC(=O)[C@H](Cc2ccccc2)NC(=O)[C@H](Cc2ccc(O)cc2)NC(=O)CC2(CCCCC2)SSC[C@@H](C(=O)N2CCC[C@H]2C(=O)N[C@H](CCCN=C(N)N)C(=O)NCC(N)=O)NC(=O)[C@H](CC(N)=O)NC1=O [listing 2 of 2 here],,,,0.2,0.31
